This note sets out measurements from patent US7887851B2, “Aromatase activator” (Kao Corporation, priority 2004, dated 2011).

The subject of experiment [1] is HepG2 cell. Put plainly: alamarBlue fluorescence in Ex1b-luc transfected HepG2 cell. It is filed as cell-based, human. The settings on record: added at 1%, 20 hours. As to the method: Immortalized human hepatoma-derived cell (HepG2 cell)
HepG2 cell was inoculated to 96 well culture plate at 30,000 cells per well, and Ex1b-luc was introduced using lipofectamine reagent (Invitrogen) according to the protocol described in the attached manual. The DNA was used at an amount of 0.1 μg per well. The same procedure was repeated for control without adding the DNA (2 wells).
The transfected cells were cultivated overnight, and plant extract prepared in Production Example 1, Table 2, or yeast extract (“YeastLiquid B”, Ichimaru Pharcos Co Ltd.), silk protein extract (“Silkgen G Soluble KE”, Ichimaru Pharcos Co Ltd.), milk protein (“Bioderma SX-14” Ichimaru Pharcos Co Ltd.), “lactoferrin S FREE”, Ichimaru Pharcos Co Ltd.), natto extract (“Soybean polymer F B-20”, Ichimaru Pharcos Co Ltd.), or royal jelly (“royal jelly extract”, Ichimaru Pharcos Co Ltd.) was added (1% or 0.1%), and the cultivation was continued for another 20 hours. After adding 20 μL of alamarBlue (BIOSOURCE), fluorescence intensity (excitation light 544 nm, fluorescence 590 nm) was measured. Luciferase activity was also measured by using PicaGene Dual SeaPansy Luminescence kit (Nippon Gene). The cells were lysed by adding 25 μL per well of the lysis buffer that had been diluted 5× lysis buffer to 1× concentration.
In general terms: The colour change of resazurin is a common sign of viable cells or microbes.

Experiment [2] has as its system transcription control region for exon 1b of human aromatase gene. Put plainly: Luciferase reporter assay, Ex1b-luc in HepG2 cell (expression of exon 1b of aromatase gene). The settings on record: added at 1%, 20 hours. It is filed as cell-based. As to the method:
The region containing transcription control region for exon 1b of human aromatase gene and a part of the exon 1b was amplified by PCR from genomic DNA extracted from human normal keratinocyte by using the following primers: […]
The resulting PCR product was treated with restriction enzymes SpeI and EcoRI, and incorporated in SpeI site and EcoRI site in SeaPansy null Control Vector (Toyo Ink Mfg. Co., Ltd.) to produce Ex1b-luc plasmid. This plasmid was used in the luciferase assay as will be described below.
Immortalized human hepatoma-derived cell (HepG2 cell) […]
The transfected cells were cultivated overnight, and plant extract prepared in Production Example 1, Table 2, or yeast extract (“YeastLiquid B”, Ichimaru Pharcos Co Ltd.), silk protein extract (“Silkgen G Soluble KE”, Ichimaru Pharcos Co Ltd.), milk protein (“Bioderma SX-14” Ichimaru Pharcos Co Ltd.), “lactoferrin S FREE”, Ichimaru Pharcos Co Ltd.), natto extract (“Soybean polymer F B-20”, Ichimaru Pharcos Co Ltd.), or royal jelly (“royal jelly extract”, Ichimaru Pharcos Co Ltd.) was added (1% or 0.1%), and the cultivation was continued for another 20 hours. After adding 20 μL of alamarBlue (BIOSOURCE), fluorescence intensity (excitation light 544 nm, fluorescence 590 nm) was measured. Luciferase activity was also measured by using PicaGene Dual SeaPansy Luminescence kit (Nippon Gene). […]
For orientation: In a reporter assay the amount or activity of a reporter protein is the signal.

As for `OC[C@H]1O[C@H](O[C@H]2O[C@H](CO)[C@@H](O)[C@H](O)[C@H]2O)[C@H](O)[C@@H](O)[C@@H]1O` [Trehalose, trehalose], the AlamarBlue activity in experiment [1] is given as 113.9%. Also, the Luciferase activity in experiment [2] came to 141.0%.
